The MIC is the lowest concentration that inhibits growth of the organism. A word on the ED50: it is the dose at which the effect has come halfway, by size or by number of responders. A low value points to an effect at a small dose.

Converted amounts (≈) assume the structure as drawn. Read-outs that look alike come from different tables or passages of the source.

The test system of one experiment is Salmonella ATCC 12176. Briefly: MIC in vitro (Table 1), Salmonella ATCC 12176. The experiment is classed as cell-based. The settings on record: Salmonella, ATCC12176, in vitro, read-out: MIC. From the text:
(§1) The compounds of Formula I have antibacterial activity against both Gram-positive and Gram-negative organisms. […] Compound names corresponding to numbers are given in the experimental section. For comparative purposes, data for cephamandole, which is 7-mandelamido-3-(1-methyltetrazol-5-ylthiomethyl)-3-cephem-4-carboxylic acid, is also given in Tables 1 and 2.

The test system of a further experiment is S. villaluz. The experiment is described as follows: MIC in vitro (Table 1), S. villaluz. The experiment is classed as cell-based. The note with it: read-out: MIC.
Text: as §1

Another experiment concerns S. aureus SK 23390. The experiment is described as follows: MIC in vitro (Table 1), S. aureus SK 23390. The note with it: Staphylococcus aureus. The class given is cell-based. From the text: (§2) Compound names corresponding to numbers are given in the experimental section. For comparative purposes, data for cephamandole, which is 7-mandelamido-3-(1-methyltetrazol-5-ylthiomethyl)-3-cephem-4-carboxylic acid, is also given in Tables 1 and 2.

In a further experiment the test system is Entero. cloacae HH 31254. Briefly: MIC in vitro (Table 1), Entero. cloacae HH 31254. The experiment is classed as cell-based. The settings on record: Enterobacter cloacae.
Text: as §2

Another experiment relates to Serra. Marc. ATCC 13880. Briefly: MIC in vitro (Table 1), Serra. Marc. ATCC 13880. The experiment is classed as cell-based.
Text: as §2

The test system of another experiment is E. coli SK 12140. The experiment is described as follows: MIC in vitro (Table 1), E. coli SK 12140. The class given is cell-based. The note with it: Escherichia coli, SK12140, in vitro.
Text: as §2

The subject of the next experiment is S. aureus HH 127. Briefly: MIC in vitro (Table 1), S. aureus HH 127. The class given is cell-based. The note with it: Staphylococcus aureus.
Text: as §2

The subject of the next experiment is Shigella HH 117. Briefly: MIC in vitro (Table 1), Shigella HH 117. The experiment is classed as cell-based. The note with it: Shigella, HH117, in vitro, read-out: MIC.
Text: as §1

Another experiment has as its system Kleb. pneumo. 4200. The experiment is described as follows: In vivo mouse protection (Table 2), Kleb. pneumo. 4200.
Text: as §2

The test system of the next experiment is Proteus morgani 179. Briefly: MIC in vitro (Table 1), Proteus morgani 179. The experiment is classed as cell-based. The note with it: read-out: MIC.
Text: as §2

The test system of a further experiment is E. coli HH 33779. Briefly: MIC in vitro (Table 1), E. coli HH 33779. The class given is cell-based. The note with it: Escherichia coli, HH33779, in vitro, E. coli HH 33779; read-out: MIC.
Text: as §2

A further experiment concerns Strep. Faecalis HH 34358. Briefly: MIC in vitro (Table 1), Strep. Faecalis HH 34358. The class given is cell-based. The note with it: Enterococcus faecalis, in vitro, Strep. Faecalis HH 34358; read-out: MIC.
Text: as §2

Experiment [1] has as its system Entero. aerog. ATCC 13048. The experiment is described as follows: MIC in vitro (Table 1), Entero. aerog. ATCC 13048. The experiment is classed as cell-based.
Text: as §2

In another experiment the test system is Kleb. pneumo. SK 4200. The experiment is described as follows: MIC in vitro (Table 1), Kleb. pneumo. SK 4200. The class given is cell-based.
Text: as §2

The test system of the next experiment is Kleb. pneumo. SK 1200. The experiment is described as follows: MIC in vitro (Table 1), Kleb. pneumo. SK 1200. The experiment is classed as cell-based.
Text: as §2

Another experiment concerns E. coli 12140. The experiment is described as follows: In vivo mouse protection (Table 2), E. coli 12140.
Text: as §2

For another experiment, the system named is Pseudo. sp. HH 63. Briefly: MIC in vitro (Table 1), Pseudo. sp. HH 63. The note with it: in vitro, Pseudo. sp. HH 63; read-out: MIC. The experiment is classed as cell-based.
Text: as §1

[2] abbreviates: HH31254, in vitro, Entero. cloacae HH 31254, read-out: MIC.
The mark [3] stands for this setting: in vitro, Serra. Marc. ATCC 13880, read-out: MIC.
Setting [4] is: HH127, in vitro, S. aureus HH 127, read-out: MIC.
[5] abbreviates: in vitro, Entero. aerog. ATCC 13048, read-out: MIC.
The mark [6] stands for this setting: in vitro, Kleb. pneumo. SK 4200, read-out: MIC.
Setting [7] is: Escherichia coli, 12140, po, E. coli 12140, p.o.
[8] abbreviates: Escherichia coli, 12140, sc, E. coli 12140, s.c.
Where [9] appears, read: SK23390, in vitro, S. aureus SK 23390, read-out: MIC.

On to `NC(=O)Cn1nnnc1SCC1=C(C(=O)O)N2C(=O)C(NC(=O)CSC(F)(F)F)[C@H]2SC1` (some centres unmarked) [XVII, 7-Trifluoromethylmercaptoacetamido-3-(1-carbamoylmethyltetrazol-5-ylthiomethyl)-3-cephem-4-carboxylic acid], for which the minimal inhibitory concentration (MIC) was 0.4 µg/mL (≈ 0.779 µM) in the experiment on Salmonella ATCC 12176; 12.5 µg/mL (≈ 24.3 µM) with S. villaluz; 0.4 µg/mL (≈ 0.779 µM) in the experiment on S. aureus SK 23390 (SK23390); 0.8 µg/mL (≈ 1.56 µM) in the experiment on Entero. cloacae HH 31254 (setting [2]); 100 µg/mL (≈ 195 µM) with Serra. Marc. ATCC 13880 (setting [3]); 0.4 µg/mL (≈ 0.779 µM) against E. coli SK 12140. The MIC in the experiment on S. aureus HH 127 (setting [4]) amounted to 0.4 µg/mL (≈ 0.779 µM); with Shigella HH 117, 0.2 µg/mL (≈ 0.389 µM); in the experiment on Proteus morgani 179 it was 200 µg/mL (≈ 389 µM); in the experiment with E. coli HH 33779, 3.1 µg/mL (≈ 6.04 µM); with Strep. Faecalis HH 34358, 25 µg/mL (≈ 48.7 µM); in experiment [1] (setting [5]), 1.6 µg/mL (≈ 3.12 µM). In addition, the MIC in the experiment on Kleb. pneumo. SK 4200 (setting [6]) worked out at 0.8 µg/mL (≈ 1.56 µM); against Kleb. pneumo. SK 1200 it was 0.4 µg/mL (≈ 0.779 µM). Moreover, the 50% effective dose (ED50) with Kleb. pneumo. 4200 (po, Kleb. pneumo. 4200, p.o.) turned out to be 15.5 mg/kg; in the experiment with Kleb. pneumo. 4200 (sc, Kleb. pneumo. 4200, s.c.), 0.78 mg/kg; in the experiment on E. coli 12140 (setting [7]), 6.25 mg/kg; with E. coli 12140 (setting [8]), 0.28 mg/kg.
With `NC(=O)CCCn1nnnc1SCC1=C(C(=O)O)N2C(=O)C(NC(=O)[C@H](O)c3ccccc3)[C@H]2SC1` (stereo partly drawn) [XI, 7-D-Mandelamido-3-[1-(3-carbamoylpropyl)tetrazol-5-ylthiomethyl]-3-cephem-4-carboxylic acid], the MIC in the experiment on Salmonella ATCC 12176 was 0.8 µg/mL (≈ 1.5 µM); in the experiment with S. villaluz, 50 µg/mL (≈ 93.7 µM); in the experiment with S. aureus SK 23390 (setting [9]), 3.1 µg/mL (≈ 5.81 µM); against Entero. cloacae HH 31254 (HH31254), 3.1 µg/mL (≈ 5.81 µM); with Serra. Marc. ATCC 13880, 25 µg/mL (≈ 46.9 µM); in the experiment with E. coli SK 12140 it was 0.4 µg/mL (≈ 0.75 µM). Also, the MIC worked out at 3.1 µg/mL (≈ 5.81 µM) in the experiment with S. aureus HH 127 (HH127); 0.4 µg/mL (≈ 0.75 µM) in the experiment on Shigella HH 117; 0.8 µg/mL (≈ 1.5 µM) in the experiment on Proteus morgani 179; 3.1 µg/mL (≈ 5.81 µM) with E. coli HH 33779; 50 µg/mL (≈ 93.7 µM) in the experiment on Strep. Faecalis HH 34358; 3.1 µg/mL (≈ 5.81 µM) in experiment [1]. The MIC in the experiment on Pseudo. sp. HH 63 is over 200 µg/mL; with Kleb. pneumo. SK 4200 (setting [6]) it was 0.8 µg/mL (≈ 1.5 µM); with Kleb. pneumo. SK 1200 (read-out: MIC) it was 0.8 µg/mL (≈ 1.5 µM). For the same molecule, the ED50 with Kleb. pneumo. 4200 (po, Kleb. pneumo. 4200, p.o.) is 25 mg/kg; in the experiment on Kleb. pneumo. 4200 (sc, Kleb. pneumo. 4200, s.c.), 0.37 mg/kg; in the experiment on E. coli 12140 (setting [7]), over 50 mg/kg; in the experiment on E. coli 12140 (setting [8]) it was 1.56 mg/kg.
For the molecule `O=C(O)CCn1nnnc1SCC1=C(C(=O)O)N2C(=O)C(NC(=O)CSC(F)(F)F)[C@H]2SC1` (some centres unmarked) [XV, 7-Trifluoromethylmercaptoacetamido-3-[1-(2-carboxyethyl)tetrazol-5-ylthiomethyl]-3-cephem-4-carboxylic acid], the minimal inhibitory concentration (MIC) in the experiment on Salmonella ATCC 12176 was determined as 0.4 µg/mL (≈ 0.757 µM); with S. villaluz, 25 µg/mL (≈ 47.3 µM); in the experiment with S. aureus SK 23390 (SK23390) it was 0.8 µg/mL (≈ 1.51 µM); with Entero. cloacae HH 31254 (setting [2]), 0.8 µg/mL (≈ 1.51 µM); with Serra. Marc. ATCC 13880 (setting [3]), 200 µg/mL (≈ 378 µM); in the experiment on E. coli SK 12140 (read-out: MIC), 0.8 µg/mL (≈ 1.51 µM). In addition, the MIC was 1.6 µg/mL (≈ 3.03 µM) with S. aureus HH 127 (setting [4]); 0.8 µg/mL (≈ 1.51 µM) in the experiment with Shigella HH 117; over 200 µg/mL with Proteus morgani 179; 3.1 µg/mL (≈ 5.87 µM) in the experiment on E. coli HH 33779; 50 µg/mL (≈ 94.6 µM) in the experiment on Strep. Faecalis HH 34358; 6.3 µg/mL (≈ 11.9 µM) in experiment [1] (setting [5]). The MIC in the experiment on Kleb. pneumo. SK 4200 (setting [6]) is 0.8 µg/mL (≈ 1.51 µM); against Kleb. pneumo. SK 1200, 0.4 µg/mL (≈ 0.757 µM). The ED50 in the experiment with Kleb. pneumo. 4200 (po, Kleb. pneumo. 4200, p.o.) was 46 mg/kg; in the experiment with Kleb. pneumo. 4200 (sc, Kleb. pneumo. 4200, s.c.) it was 1.12 mg/kg; with E. coli 12140 (setting [7]) it was over 50 mg/kg; with E. coli 12140 (setting [8]), 1.56 mg/kg.
Consider `O=C(O)Cn1nnnc1SCC1=C(C(=O)O)N2C(=O)C(NC(=O)CSC(F)(F)F)[C@H]2SC1` (some centres unmarked) [XVIII, 7-Trifluoromethylmercaptoacetamido-3-(1-carboxymethyltetrazol-5-ylthiomethyl)-3-cephem-4-carboxylic acid], for which the minimum inhibitory concentration (MIC) is 0.8 µg/mL (≈ 1.55 µM) in the experiment on Salmonella ATCC 12176; 100 µg/mL (≈ 194 µM) with S. villaluz; 3 µg/mL (≈ 5.83 µM) in the experiment with S. aureus SK 23390 (setting [9]); 3 µg/mL (≈ 5.83 µM) in the experiment on Entero. cloacae HH 31254 (setting [2]); over 200 µg/mL in the experiment on Serra. Marc. ATCC 13880 (setting [3]); 0.8 µg/mL (≈ 1.55 µM) with E. coli SK 12140 (read-out: MIC). Moreover, the minimal inhibitory concentration (MIC) in the experiment with S. aureus HH 127 (setting [4]) turned out to be 3 µg/mL (≈ 5.83 µM); in the experiment on Shigella HH 117, 3 µg/mL (≈ 5.83 µM); in the experiment with Proteus morgani 179 it was 200 µg/mL (≈ 389 µM); with E. coli HH 33779 it was 6 µg/mL (≈ 11.7 µM); with Strep. Faecalis HH 34358 it was 100 µg/mL (≈ 194 µM); in experiment [1] (setting [5]), 13 µg/mL (≈ 25.3 µM). Further, the MIC against Kleb. pneumo. SK 4200 and in the experiment with Kleb. pneumo. SK 1200 was 0.4 µg/mL (≈ 0.777 µM) in each case. Further, the ED50 in the experiment on Kleb. pneumo. 4200 (sc, Kleb. pneumo. 4200, s.c.) turned out to be 0.4 mg/kg; with E. coli 12140 (setting [8]) it was 3.1 mg/kg.
